Experimental data: patent US6737383B1, “Herbicidal oxadiazolidines” (priority 1999, dated 2004)

What was measured:
pitted morningglory = assay: Test D pitted morningglory; type: in vivo, Ipomoea lacunosa; details: Preemergence, 0 to 100 scale
Method in brief: (§1)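 Weed seeds planted in sandy loam; species kept apart in individual pots or compartments. Preemergence tests: treatment to soil surface within one day. Greenhouse growth, then visual injury scoring at 14–21 days (0–100).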

goosegrass = assay: Test D goosegrass; type: in vivo, Eleusine indica; details: Preemergence, 0 to 100 scale
Method in brief: as §1

tall mallow = assay: Test D tall mallow; type: in vivo, Malva sylvestris; details: Preemergence, 0 to 100 scale; for Tall Mallow plant response rating: 0 no injury, 100 complete control
Method in brief: as §1

itchgrass = assay: Test D itchgrass; type: in vivo, Rottboellia exaltata; details: Preemergence, 0 to 100 scale
Method in brief: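 Scoring used a 0–100 visual injury scale, with 0 meaning no effect and 100 complete control, assessed 14–21 days after application alongside untreated pots. Preemergence treatments went onto sandy loam surfaces of separately potted seeds within a day of sowing.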

guineagrass = assay: Test D guineagrass; type: in vivo, Panicum maximum; details: Preemergence, 0 to 100 scale
Method in brief: as §1

purple nutsedge = assay: Test D purple nutsedge; type: in vivo, Cyperus rotundus; details: Preemergence, 0 to 100 scale; for Purple nutsedge plant response rating: 0 no injury, 100 complete control
Method in brief: as §1

common pursiane = assay: Test D common purslane; type: in vivo, Portulaca oleracea
Method in brief: as §1

dallisgrass = assay: Test D dallisgrass; type: in vivo, Paspalum dilatatum; details: Preemergence, 0 to 100 scale
Method in brief: as §1

surinam grass = assay: Test D surinam grass; type: in vivo, Brachiaria decumbens; details: Preemergence, 0 to 100 scale; for Surinam grass plant response rating: 0 no injury, 100 complete control
Method in brief: as §1

Green foxtail [1] = assay: Test D green foxtail; type: in vivo; details: Preemergence, 0 to 100 scale
Method in brief: as §1

Spanishneedles = assay: Test D Spanishneedles; type: in vivo, Bidens bipinnata; details: Preemergence, 0 to 100 scale; for Spanishneedles plant response rating: 0 no injury, 100 complete control
Method in brief: as §1

sandbur = assay: Test D sandbur; type: in vivo, Cenchrus echinatus; details: Preemergence, 0 to 100 scale; for Sandbur plant response rating: 0 no injury, 100 complete control
Method in brief: as §1

large crabgrass = assay: Test D large crabgrass; type: in vivo, Digitaria sanguinalis; details: Preemergence, 0 to 100 scale
Method in brief: as §1

Johnson grass = assay: Test D Johnson grass; type: in vivo, Sorghum halepense; details: Preemergence, 0 to 100 scale
Method in brief: as §1

Alexandergrass = assay: Test D Alexandergrass; type: in vivo, Brachiaria plantaginea; details: Preemergence, 0 to 100 scale
Method in brief: as §1

Green foxtail [2] = assay: Test D green foxtail; type: in vivo; details: Rate 500 g/ha; Preemergence; 0 to 100 scale
Method in brief: as §1

common groundsel = assay: Test D common groundsel; type: in vivo, Senecio vulgaris; details: Preemergence, 0 to 100 scale
Method in brief: as §1

[3] = Rate 64 g/ha, 0 no injury, 100 complete control
[4] = Rate 125 g/ha, 0 no injury, 100 complete control

CCn1c(=O)on(C(=O)N(c2ccccc2)C(C)C)c1=O [Compound 117]
Plant response rating, P. morninglory (pitted morningglory; [3]): 0
Plant response rating, P. morninglory (pitted morningglory; [4]): 20
Plant response rating, P. morninglory (pitted morningglory; Rate 500 g/ha): 40
Plant response rating, Goosegrass (goosegrass; [3]): 85
Plant response rating, Goosegrass (goosegrass; [4]): 100
Plant response rating, Goosegrass (goosegrass; Rate 500 g/ha): 100
Tall Mallow plant response rating (tall mallow; Rate 64 g/ha): 40
Tall Mallow plant response rating (tall mallow; Rate 125 g/ha): 65
Plant response rating, Tall Mallow (tall mallow; Rate 500 g/ha): 100
Plant response rating, Itchgrass (itchgrass; [3]): 40
Plant response rating, Itchgrass (itchgrass; [4]): 75
Plant response rating, Itchgrass (itchgrass; Rate 500 g/ha): 100
Plant response rating, Guineagrass (guineagrass; [3]): 100
Plant response rating, Guineagrass (guineagrass; [4]): 100
Plant response rating, Guineagrass (guineagrass; Rate 500 g/ha): 100
Purple nutsedge plant response rating (purple nutsedge; Rate 64 g/ha): 0
Purple nutsedge plant response rating (purple nutsedge; Rate 125 g/ha): 0
Plant response rating, Purple nutsedge (purple nutsedge; Rate 500 g/ha): 100
Plant response rating, C. purslane (common pursiane; Rate 64 g/ha, Preemergence; 0 to 100 scale, 0 no injury, 100 complete control): 0
Plant response rating, C. purslane (common pursiane; Rate 125 g/ha, Preemergence; 0 to 100 scale, 0 no injury, 100 complete control): 0
Plant response rating, C. purslane (common pursiane; Rate 500 g/ha, Preemergence; 0 to 100 scale): 65
Plant response rating, C. purslane (common pursiane; Rate 500 g/ha; Preemergence; 0 to 100 scale): 0
Plant response rating, Dallisgrass (dallisgrass; [3]): 85
Plant response rating, Dallisgrass (dallisgrass; [4]): 95
Plant response rating, Dallisgrass (dallisgrass; Rate 500 g/ha): 100
Surinam grass plant response rating (surinam grass; Rate 64 g/ha): 80
Surinam grass plant response rating (surinam grass; Rate 125 g/ha): 100
Plant response rating, Surinam grass (surinam grass; Rate 500 g/ha): 100
Green foxtail plant response rating (Green foxtail [1]; [3]): 100
Plant response rating, Green foxtail (Green foxtail [1]; [3]): 100
Green foxtail plant response rating (Green foxtail [1]; [4]): 100
Plant response rating, Green foxtail (Green foxtail [1]; [4]): 100
Plant response rating, Green foxtail (Green foxtail [1]; Rate 500 g/ha): 100
Spanishneedles plant response rating (Spanishneedles; Rate 64 g/ha): 0
Spanishneedles plant response rating (Spanishneedles; Rate 125 g/ha): 0
Plant response rating, Spanishneedles (Spanishneedles; Rate 500 g/ha): 0
Sandbur plant response rating (sandbur; Rate 64 g/ha): 0
Sandbur plant response rating (sandbur; Rate 125 g/ha): 0
Plant response rating, Sandbur (sandbur; Rate 500 g/ha): 100
Plant response rating Large crabgrass (large crabgrass; [3]): 98
Plant response rating Large crabgrass (large crabgrass; [4]): 98
Plant response rating Large crabgrass (large crabgrass; Rate 500 g/ha): 100
Plant response rating Johnsongrass (Johnson grass; [3]): 90
Plant response rating Johnsongrass (Johnson grass; [4]): 90
Plant response rating Johnsongrass (Johnson grass; Rate 500 g/ha): 100
Plant response rating, Alexandergrass (Alexandergrass; [3]): 90
Plant response rating, Alexandergrass (Alexandergrass; [4]): 90
Plant response rating, Alexandergrass (Alexandergrass; Rate 500 g/ha): 98
Plant response rating, Green foxtail (Green foxtail [2]): 100
Plant response rating, Com. groundsel (common groundsel; [3]): 0
Plant response rating, Com. groundsel (common groundsel; [4]): 75
Plant response rating, Com. groundsel (common groundsel; Rate 500 g/ha): 100
